Several values for one entry are separate records, joined by “and”; a condition that tells them apart may be missing. Equal values may be shown once.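 Dose response: 5 concentrations. Exposure: 48 h. Format: 96-well plates. Endpoint: linear interpolation; highest concentration if not reached. Here, GI50 denotes the concentration required for 50% inhibition of growth. At the TGI there is no net growth.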
Legend:
Assay in all cases: NCI anticancer screen, dose series, 48 h; in the data active = GI50 below about 0.43 µM; inactive = the rest
786-0 renal = tested on: 786-0 renal
A498 renal = tested on: A498 renal
A549 NSCLC = tested on: A549 NSCLC
ACHN renal = tested on: ACHN renal
CAKI-1 renal = tested on: CAKI-1 renal
CCRF-CEM leukemia = tested on: CCRF-CEM leukemia
DLD-1 colon = tested on: DLD-1 colon
DMS 114 small cell lung = tested on: DMS 114 small cell lung
DMS 273 small cell lung = tested on: DMS 273 small cell lung
EKVX NSCLC = tested on: EKVX NSCLC
HCC-2998 colon = tested on: HCC-2998 colon
HCT-116 colon = tested on: HCT-116 colon
HL-60(TB) leukemia = tested on: HL-60(TB) leukemia
HOP-62 NSCLC = tested on: HOP-62 NSCLC
HOP-92 NSCLC = tested on: HOP-92 NSCLC
HT29 colon = tested on: HT29 colon
IGROV1 ovarian = tested on: IGROV1 ovarian
K-562 leukemia = tested on: K-562 leukemia
KM12 colon = tested on: KM12 colon
KM20L2 colon = tested on: KM20L2 colon
LXFL 529 NSCLC = tested on: LXFL 529 NSCLC
M14 melanoma = tested on: M14 melanoma
M19-MEL melanoma = tested on: M19-MEL melanoma
MALME-3M melanoma = tested on: MALME-3M melanoma
MOLT-4 leukemia = tested on: MOLT-4 leukemia
NCI-H226 lung = tested on: NCI-H226 lung
NCI-H23 lung = tested on: NCI-H23 lung
NCI-H460 lung = tested on: NCI-H460 lung
NCI-H522 lung = tested on: NCI-H522 lung
OVCAR-3 ovarian = tested on: OVCAR-3 ovarian
OVCAR-4 ovarian = tested on: OVCAR-4 ovarian
OVCAR-5 ovarian = tested on: OVCAR-5 ovarian
OVCAR-8 ovarian = tested on: OVCAR-8 ovarian
RXF 393 renal = tested on: RXF 393 renal
RXF-631 renal = tested on: RXF-631 renal
SF-268 CNS = tested on: SF-268 CNS
SF-295 CNS = tested on: SF-295 CNS
SF-539 CNS = tested on: SF-539 CNS
SK-MEL-2 melanoma = tested on: SK-MEL-2 melanoma
SK-MEL-28 melanoma = tested on: SK-MEL-28 melanoma
SK-MEL-5 melanoma = tested on: SK-MEL-5 melanoma
SK-OV-3 ovarian = tested on: SK-OV-3 ovarian
SN12C renal = tested on: SN12C renal
SNB-19 CNS = tested on: SNB-19 CNS
SNB-75 CNS = tested on: SNB-75 CNS
SNB-78 CNS = tested on: SNB-78 CNS
SR leukemia = tested on: SR leukemia
SW-620 colon = tested on: SW-620 colon
TK-10 renal = tested on: TK-10 renal
U251 CNS = tested on: U251 CNS
UACC-257 melanoma = tested on: UACC-257 melanoma
UACC-62 melanoma = tested on: UACC-62 melanoma
UO-31 renal = tested on: UO-31 renal
XF 498 CNS = tested on: XF 498 CNS
COLO 205 colon = tested on: COLO 205 colon
HCT-15 colon = tested on: HCT-15 colon
HOP-18 NSCLC = tested on: HOP-18 NSCLC
LOX IMVI melanoma = tested on: LOX IMVI melanoma
RPMI-8226 leukemia = tested on: RPMI-8226 leukemia
MDA-MB-435 = tested on: MDA-MB-435

CC1C=CC(O)[C@]2(CO)CC3(CCC12)OCCO3 (stereo partly drawn)
> 100 µM: TGI (786-0 renal) | TGI (A498 renal) | TGI (A549 NSCLC) | TGI (ACHN renal) | TGI (CAKI-1 renal) | TGI (CCRF-CEM leukemia) | TGI (DLD-1 colon) | TGI (DMS 114 small cell lung) | TGI (DMS 273 small cell lung) | TGI (EKVX NSCLC) | TGI (HCC-2998 colon) | TGI (HCT-116 colon) | TGI (HL-60(TB) leukemia) | TGI (HOP-62 NSCLC) | TGI (HOP-92 NSCLC) | TGI (HT29 colon) | TGI (IGROV1 ovarian) | TGI (K-562 leukemia) | TGI (KM12 colon) | TGI (KM20L2 colon) | TGI (LXFL 529 NSCLC) | TGI (M14 melanoma) | TGI (M19-MEL melanoma) | TGI (MALME-3M melanoma) | TGI (MOLT-4 leukemia) | TGI (NCI-H226 lung) | TGI (NCI-H23 lung) | TGI (NCI-H460 lung) | TGI (NCI-H522 lung) | TGI (OVCAR-3 ovarian) | TGI (OVCAR-4 ovarian) | TGI (OVCAR-5 ovarian) | TGI (OVCAR-8 ovarian) | TGI (RXF 393 renal) | TGI (RXF-631 renal) | TGI (SF-268 CNS) | TGI (SF-295 CNS) | TGI (SF-539 CNS) | TGI (SK-MEL-2 melanoma) | TGI (SK-MEL-28 melanoma) | TGI (SK-MEL-5 melanoma) | TGI (SK-OV-3 ovarian) | TGI (SN12C renal) | TGI (SNB-19 CNS) | TGI (SNB-75 CNS) | TGI (SNB-78 CNS) | TGI (SR leukemia) | TGI (SW-620 colon) | TGI (TK-10 renal) | TGI (U251 CNS) | TGI (UACC-257 melanoma) | TGI (UACC-62 melanoma) | TGI (UO-31 renal) | TGI (XF 498 CNS)

O=C(O)c1ccccc1NS(=O)(=O)c1ccc([N+](=O)[O-])cc1
> 100 µM: TGI (786-0 renal) | TGI (A549 NSCLC) | TGI (ACHN renal) | TGI (CAKI-1 renal) | TGI (CCRF-CEM leukemia) | TGI (COLO 205 colon) | TGI (DMS 273 small cell lung) | TGI (EKVX NSCLC) | TGI (HCC-2998 colon) | TGI (HCT-116 colon) | TGI (HCT-15 colon) | TGI (HOP-18 NSCLC) | TGI (HOP-62 NSCLC) | TGI (HT29 colon) | TGI (IGROV1 ovarian) | TGI (K-562 leukemia) | TGI (KM12 colon) | TGI (KM20L2 colon) | TGI (LOX IMVI melanoma) | TGI (LXFL 529 NSCLC) | TGI (M14 melanoma) | TGI (MALME-3M melanoma) | TGI (MOLT-4 leukemia) | TGI (NCI-H226 lung) | TGI (NCI-H23 lung) | TGI (NCI-H460 lung) | TGI (NCI-H522 lung) | TGI (OVCAR-3 ovarian) | TGI (OVCAR-4 ovarian) | TGI (OVCAR-5 ovarian) | TGI (OVCAR-8 ovarian) | TGI (RPMI-8226 leukemia) | TGI (RXF 393 renal) | TGI (RXF-631 renal) | TGI (SF-268 CNS) | TGI (SF-295 CNS) | TGI (SF-539 CNS) | TGI (SK-MEL-2 melanoma) | TGI (SK-MEL-28 melanoma) | TGI (SK-MEL-5 melanoma) | TGI (SK-OV-3 ovarian) | TGI (SN12C renal) | TGI (SNB-19 CNS) | TGI (SNB-75 CNS) | TGI (SNB-78 CNS) | TGI (SW-620 colon) | TGI (TK-10 renal) | TGI (U251 CNS) | TGI (UACC-257 melanoma) | TGI (UACC-62 melanoma) | TGI (UO-31 renal) | TGI (XF 498 CNS)

CC(C)S(=O)(=O)ON1C(=O)c2ccc(N(C)C)cc2C1=O
54.5 µM: TGI (HOP-92 NSCLC)
6.46 µM and 9.12 µM: TGI (RPMI-8226 leukemia)
25.1 µM: TGI (LXFL 529 NSCLC)
41.2 µM: TGI (KM20L2 colon)
> 100 µM: TGI (SNB-19 CNS) | TGI (SNB-78 CNS)
27.3 µM: TGI (HOP-18 NSCLC)
31.4 µM: TGI (SK-MEL-5 melanoma)
21.3 µM: TGI (K-562 leukemia)
active: GI50 (CCRF-CEM leukemia) 0.29 µM | GI50 (HL-60(TB) leukemia) 0.417 µM | GI50 (MOLT-4 leukemia) 0.4 µM
37.4 µM: TGI (SF-539 CNS)
38.6 µM: TGI (SW-620 colon)
> 60.7 µM: TGI (A498 renal)
32.3 µM: TGI (HCT-15 colon) | TGI (XF 498 CNS)
40 µM: TGI (M14 melanoma)
24.5 µM: TGI (OVCAR-3 ovarian)
29.6 µM: TGI (LOX IMVI melanoma)
66.8 µM: TGI (SF-268 CNS)
37.1 µM: TGI (TK-10 renal)
38.8 µM: TGI (UACC-257 melanoma)
4.57 µM and > 22.8 µM: TGI (MOLT-4 leukemia)
> 63.4 µM: TGI (HOP-62 NSCLC)
> 58 µM: TGI (HT29 colon)
33.7 µM: TGI (ACHN renal) | TGI (OVCAR-4 ovarian) | TGI (UACC-62 melanoma)
30.3 µM: TGI (U251 CNS)
35.6 µM: TGI (DMS 273 small cell lung)
41.7 µM: TGI (EKVX NSCLC)
> 67.1 µM: TGI (SF-295 CNS)
43 µM: TGI (IGROV1 ovarian)
46.4 µM: TGI (KM12 colon)
9.13 µM and 30.8 µM: TGI (HCT-116 colon)
17.9 µM: TGI (RXF 393 renal)
> 78.6 µM: TGI (SK-OV-3 ovarian)
34.5 µM: TGI (UO-31 renal)
18 µM: TGI (HCC-2998 colon)
39.3 µM: TGI (SNB-75 CNS)
37.3 µM: TGI (NCI-H460 lung)
45 µM: TGI (SK-MEL-2 melanoma)
3.18 µM and 9.78 µM: TGI (SR leukemia)
1.06 µM and 9.21 µM: TGI (CCRF-CEM leukemia)
8.68 µM and 53.5 µM: TGI (MALME-3M melanoma)
56.1 µM: TGI (SK-MEL-28 melanoma)
58 µM: TGI (A549 NSCLC)
4.75 µM: TGI (MDA-MB-435)
4.42 µM and 3.85 µM: TGI (NCI-H522 lung)
28.7 µM: TGI (CAKI-1 renal)
> 59.2 µM: TGI (NCI-H23 lung)
inactive: GI50 (786-0 renal) 19.5 µM | GI50 (CAKI-1 renal) 13.6 µM | GI50 (COLO 205 colon) 8.36 µM | GI50 (HCT-116 colon) 2.44 µM | GI50 (HOP-92 NSCLC) 28 µM | GI50 (K-562 leukemia) 2.48 µM | GI50 (LOX IMVI melanoma) 9.69 µM | GI50 (MALME-3M melanoma) 20.5 µM | GI50 (NCI-H522 lung) 1.79 µM | GI50 (OVCAR-4 ovarian) 6.01 µM | GI50 (OVCAR-8 ovarian) 5.05 µM | GI50 (RPMI-8226 leukemia) 1.71 µM | GI50 (RXF 393 renal) 5.34 µM | GI50 (SK-MEL-2 melanoma) 19.1 µM | GI50 (SK-MEL-5 melanoma) 15.3 µM | GI50 (SNB-75 CNS) 8.66 µM | GI50 (SR leukemia) 0.752 µM | GI50 (SW-620 colon) 4.01 µM
34.3 µM: TGI (SN12C renal)
6.47 µM and 63.7 µM: TGI (OVCAR-8 ovarian)
> 60.9 µM: TGI (NCI-H226 lung)
42 µM: TGI (786-0 renal) | TGI (OVCAR-5 ovarian)
21.5 µM: TGI (COLO 205 colon)
19.7 µM: TGI (RXF-631 renal)

— PubChem BioAssay (NCI)
